Data taken from patent US20230355674A1, “DONOR T-CELLS WITH KILL SWITCH” (CSL Behring LLC, priority 2020, published 2023).
“Also recorded” adds a separate entry of the source.

How the values were obtained:
[1] = system: K562 cells; assay: Negative selection with MTX, transduced or transfected K562 cells; type: cell-based, human; details: 0.3 μM of MTX
Method: Transduced or transfected K562 cells (such as those from Example 1) were cultured with or without MTX from day 0 to day 14. The medium was refreshed every 3 to 4 days. GFP was analyzed on a flow machine and the InDel % was analyzed by T7E1 assay. […] On the other hand, the population of cells was steady without MTX. FIG. 14B illustrates that the transfected K562 cells were eliminated under treatment with 0.3 μM of MTX at a faster pace as compared with the HPRT-knockdown population.

[2] = system: CEM cells; assay: Negative selection with MTX or MPA, transduced or transfected CEM cells; type: cell-based; details: 0.3 μM of MTX, day 0 to day 14
Method: Transduced or transfected CEM cells (such as those from Example 1) were cultured with or without MTX from day 0 to day 14. The medium was refreshed every 3 to 4 days. GFP was analyzed on flow machine and InDel % was analyzed by T7E1 assay.

[3] = MTX dose response in 6-TG selected CEM cells; type: cell-based; details: human, wild type CEM T cell leukemia cells, 0.5 μM MTX, thymidine 16 μM, read-out: viable wild type (WT) cells
Method: CEM T cell leukemia cells modified by 8 guide RNAs targeting the HPRT1 gene were cultured for 1 week in the presence of 10 μM 6-TG, replenished with fresh 6-TG every 48-72 hours. Following the selection period and confirmation of HPRT protein reduction, the CEM cells were tested for their sensitivity to a dose range of […], methotrexate (MTX) for 3 days in the presence of thymidine 16 μM (T1895 Sigma).

[4] = system: HPRT1 gene; assay: ICE scoring (indel, knockout score) of gRNA editing in CEM cells; type: cell-based, human
Description: The top candidate guide RNAs from Example 21 were screen in Jurkat cell lines (n=1) and validated in CEM cell lines (n=2). For instance, Jurkat cells were electroporated with a ribonucleoprotein (RNP) complex containing guide RNA (e.g. an RNP including a guide RNA having any one of SEQ ID NOS: 40-49) together with the Cas9 and tracrRNA. The methodology and analysis was the same for both Jurkat cell lines and CEM cell lines (see also, FIG. 37). Following electroporation, cell viability was measured at different concentrations of 6-TG (see FIG. 36).
(§1) Indel Percentage—The editing efficiency (percentage of the pool with non-wild type sequence) as determined by comparing the edited trace to the control trace. In the ICE algorithm, potential editing outcomes are proposed and fitted to the observed data using linear regression.
(§2) Knockout Score—Represents the proportion of cells that have either a frameshift or 21+bp indel. This score is a useful measure for those who are interested in understanding how many of the contributing indels are likely to result in a functional Knockout (KO) of the targeted gene.
(§3) CEM T cell leukemia cells were electroporated (1600V, 10 ms pulse width, 3 pulses by using the Neon Transfection system) with ribonucleoprotein (RNP) complexes containing guide RNA (see Example 21) designed in-house and obtained from Integrated DNA Technologies (IDT), together with Cas9 and tracrRNA. Cells confirmed to be transfected with the gRNA via the use of the tracr RNA (24 hours post electroporation) were purified using fluorescence activated cells sorting (FACS) prior to culture for a further 72 hours, followed by assessment of cell survival when challenged with increasing concentrations of 6-thioguanine (6-TG) compared to wild type (unmodified) CEM cells.

[5] = system: HPRT1 gene; assay: ICE scoring (indel, knockout score) of gRNA editing in primary T cells; type: cell-based; details: primary human T cells
Description: as §1, §2
FIG. 44 illustrates a method of modifying primary T-cells in accordance with one embodiment of the present disclosure. FIGS. 45A-45C illustrate 6-TG dose responses seven days following the modification of the primary T-cells in accordance with the modification methods described herein. In particular, FIGS. 45A and 45B illustrate the targeting of Exon 3 (guide RNA 13) and Exon 8 (guide RNA 21). The references “#9” and “#10” denote T-cell number and UT control (electroporated without RNP). […]
(§4) Peripheral blood mononuclear cells (PBMC) were isolated from Australian Red Cross Blood donor samples (n=2) via density centrifugation. […] By day 7, the original mixed PBMC population was determined to be primarily CD3+ T cells (flow cytometry; data not shown).

[6] = system: CEM T cell leukemia cells; assay: 6-TG dose response of gRNA modified CEM cells 72 hours after electroporation; type: cell-based; details: 72 hours culture, 6-TG tested up to 40 μM, vs unmodified
Method: as §3

[7] = system: HPRT protein; assay: Western blot of HPRT protein in gRNA modified CEM cells; type: cell-based, human
Method: as §3
Unmodified and modified CEM cells were also used for isolation of protein and detection of the HPRT protein using Western blot (FIG. 39, top panel). […] Actin protein detection (FIG. 39, bottom panel) was used as a protein loading control.
CEM T cell leukemia cells were electroporated (1600V, 10 ms pulse width, 3 pulses by using the Neon Transfection system) with ribonucleoprotein (RNP) complexes containing guide RNA (gRNA; legend) designed in-house and obtained from Integrated DNA Technologies (IDT), together with Cas9 and tracrRNA. Cells confirmed to be transfected with the gRNA via the use of the tracr RNA (24 hours post electroporation) were purified using fluorescence activated cells sorting (FACS) prior to culture for 10 days in the presence of 10 uM 6-TG, replenished with fresh 6-TG every 48-72 hours.
Following the selection period, protein was extracted from each cell and used for western blot-based detection of the HPRT protein. Detection of beta-actin was used as a protein loading control (Actin Antibody (ACTBD11B7): sc-81178. Santa Cruz).

[8] = system: CEM T cell leukemia cells; assay: 6-TG selection and 6-TG challenge of gRNA modified CEM cells (cell viability); type: cell-based; details: CEM, 10 μM 6-TG for 1 week, vs wild-type
Method: Cells confirmed to be transfected with the gRNA via the use of the tracr RNA (24 hours post electroporation) were purified using fluorescence activated cells sorting (FACS) prior to culture in 10 μM 6-TG for 1 week replenished with fresh 6-TG every 48-72 hours.
After 10 days in the presence of 10 uM 6-TG, replenished with fresh 6-TG every 48-72 hours, each cell line was challenged with increasing concentrations of 6-thioguanine (6-TG) and cell viability was compared to wild type (unmodified) CEM cells (see FIG. 40B).

[9] = system: primary human T cells; assay: 6-TG resistance of gRNA modified primary human T cells (viability); type: cell-based; details: donors #9 and #10, 1 uM 6-TG, day 8 and day 13, vs unmodified
Description: FIG. 44 illustrates a method of modifying primary T-cells in accordance with one embodiment of the present disclosure. FIGS. 45A-45C illustrate 6-TG dose responses seven days following the modification of the primary T-cells in accordance with the modification methods described herein. In particular, FIGS. 45A and 45B illustrate the targeting of Exon 3 (guide RNA 13) and Exon 8 (guide RNA 21). The references “#9” and “#10” denote T-cell number and UT control (electroporated without RNP). FIG. 45C illustrates unmodified cells from donor #9 and donor #10 tested with increasing concentrations of 6-TG (day 4). It was observed that the […] primary T-cells were very sensitive to low doses of 6-TG. ICE Scores are shown below.
as §4
The cells were then cultured for about 7 and about 12 days in the presence of 1 uM 6-TG, with 6-TG replenished every about 2 to about 3 days. At each of these time points, the cells were assessed for the proportion of viable cells compared to untreated (UT) controls.

[10] = system: HPRT protein; assay: Western blot of HPRT protein in gRNA modified primary T cells; type: cell-based, human; details: 72 hours after electroporation
[11] = system: primary human T cells; assay: MTX dose response in 6-TG selected primary human T cells; type: cell-based; details: primary human T cells after 12 days 1 μM 6-TG, MTX dose range 2 days, thymidine 16 μM
Method: Primary human T cells modified using guide RNAs targeting the HPRT1 gene and subsequently placed under selection pressure for 12 days with 1 μM 6-TG, with 6-TG replenished every 2 to 3 days, were subjected to a dose range of MTX in the presence of thymidine 16 μM for 2 days and assessed for cell viability.

Molecule | GFP population of transduced (HPRT knockdown) K562 cells ([1]; day 0 to day 14) | transfected (HPRT knockout) K562 cells ([1]; day 0 to day 14, compared with HPRT-knockdown population) | HPRT knockout population of CEM cells [2] | GFP population of transduced (HPRT knockdown) cells ([2]; CEM cells) | viability at 3 days, 0.5 µM [3] [%] | editing (ICE scoring), in words [4] | knockout efficiency (ICE scoring) [5] | resistance to 6-TG challenge (cell survival) [6] | HPRT protein (Western blot) ([7]; 72 hours post-electroporation, no 6-TG selection, listed as guide 21) | HPRT protein (Western blot) ([7]; after 10 days of 6-TG selection (10 uM)) | cell viability under 6-TG selection [8] | proportion of viable cells under 6-TG [9] | HPRT protein (Western blot) [10] | sensitivity to MTX compared to wild-type non-modified cells (UT) [11]
CN(Cc1cnc2nc(N)nc(N)c2n1)c1ccc(C(=O)N[C@@H](CCC(=O)O)C(=O)O)cc1 [MTX, methotrexate] | decreased | eliminated | eliminated at a faster pace | decreased | 60 |  |  |  |  |  |  |  |  | 
gRNA 21: sgRNA guide and PAM TATCCTACAACAAACTTGTCTGG, HPRT 1 target Exon 8 (listed as DNA, chemistry not given here) |  |  |  |  |  | efficient editing | about 1% | intermediate resistance | reduced compared to wildtype; also recorded: detectable levels of HPRT protein | limited to no detectable levels of HPRT | more variable viability | increased viability | residual HPRT protein was observed | increased sensitivity to MTX
